# Values joined by “and” are separate entries in the source; they are usually repeats but may differ in a detail not shown here. Identical values can stand only once. Like-named read-outs stand apart in the source and are kept apart here.
# Key:
# [1] = Degradation in seawater with simulated solar irradiation
# Protocol: The solar photolysis experiments were conducted in a chamber equipped with eight simulated sunlight full-spectrum lamps (BlueMax 5900, Full Spectrum Solutions). The temperature in the chamber was maintained at 20 °C. The total intensity of simulated sunlight was determined using a digital photometer (DT-1010B, Shenzhen Golden Octopus, China). Quartz flasks were positioned in the chamber where the total intensity of simulated sunlight was 4.79 ± 0.04 mW cm^−2 for each quartz flask. […] A DBP was added at 10 mg L^−1 to 50 mL pretreated seawater (pH 8.2) in the quartz flasks and exposed to the simulated solar irradiation for 0‒96 h. Every 8 h, the quartz flasks were rotated in and out of the chamber, and the sample volume was determined and adjusted with ultrapure water to account for any water evaporation. During the solar irradiation experiments, the sample was adjusted to pH 6.2 and 7.2 or maintained at pH 8.2 by adding 4 mM phosphate buffer (pH 6.2, 7.2, and 8.2, respectively).
# (§1) For the DBP samples with and without sunlight, aliquots were taken at a specific reaction time. The sample aliquots were analyzed using Agilent high-performance liquid chromatography (HPLC) equipped with a Poroshell 120 EC-C18 column (4.6 × 150 mm, 4 µm particle size, Agilent) and a UV detector. The mobile phase, consisting of water (pre-adjusted to pH 2 with phosphoric acid) and acetonitrile at 50/50 (v/v), was applied at a flow rate of 1.0 mL min^−1. PCMX, 2,4-dihalophenols and 5-halosalicylic acids were detected at the wavelength of 230 nm. 2,5-Dihalohydroquinones and 2,6-DCQ were detected at the wavelength of 280 nm. All the degradation experiments were conducted in duplicate.
# E. coli (ATCC 25922) = assay: Inactivation of E. coli by disinfectants (membrane filter enumeration, contact time 5 min); assay type: cell-based, Escherichia coli; details: for log reduction at 350 µg/mL: dose 350 mg L-1, 5 min
# Protocol: (§2) The chemicals and reagents used are detailed in Supplementary Note 1. The bacteria E. coli (ATCC 25922) and S. aureus (ATCC 25923) were cultured aerobically in Luria-Bertani broth (Sigma-Aldrich) and Tryptone Soya broth (Oxoid), respectively, at 37 °C for 16 h. The fungus C. albicans (ATCC 14053) was aerobically cultured in Sabouraud Dextrose broth (Difco) at 37 °C for 24 h. The microorganism cells were harvested by centrifugation at 1200×g (10 min, 4 °C) and resuspended in phosphate-buffered saline (PBS, 10 mM, pH 7.2). The disinfection experiments were performed in PBS solutions (10 mM, pH 7.2) with an initial concentration of E. coli, S. aureus, or C. albicans of 10^6‒10^7 cells per milliliter. A contact time of 5 min was used in accordance with the recommended time range of 0.25–10 min by USEPA for surface disinfection. Preliminary tests were conducted to determine the appropriate range of DBP doses. The appropriate dose range was established when the lowest and highest doses could achieve <1-log and >3-log of microbial inactivation, respectively. Based on the preliminary results, a series of doses of DBPs were added to the cell suspensions at room temperature (22 ± 1 °C). After the contact time of 5 min, the microorganism cells were enumerated following a membrane filter method. Briefly, serial 10-fold dilutions were conducted for the disinfected samples and the control sample without disinfection. Each diluted suspension was subjected to filtration through 0.45-μm membrane, which was then placed on a petri dish. The Petri dishes containing E. coli, S. aureus, and C. albicans were incubated in m-FC medium (Becton Dickinson & Co) at 45 °C for 24 h, in Tryptone Soya broth at 37 °C for 24 h and in Sabouraud Dextrose broth at 37 °C for 24 h, respectively. After incubation, the colony-forming units within a statistically reasonable range (20–80) were counted.
# The impact of pH on the disinfection efficiencies of DBPs was examined. E. coli (ATCC 25922) was used as the test strain. The disinfection experiments were performed in 10 mM PBS solutions (pH 6.2, 7.2, and 8.2) with an initial E. coli concentration of 10^6‒10^7 cells per milliliter. To initiate the disinfection, a DBP was dosed with a bacteria suspension at a predetermined concentration. After the given contact time (5 min) at room temperature (22 ± 1 °C), the bacteria were enumerated following the membrane filter method. The bacteria concentrations in the 10 mM PBS solutions (pH 6.2, 7.2, and 8.2) without the addition of DBPs were used as controls.
# C. albicans (ATCC 14053) = assay: Inactivation of C. albicans (contact time 5 min); assay type: cell-based, Candida albicans; details: Candida albicans, ATCC14053, 5 min, pH 7.2, read-out: Log (N/N0), C. albicans; dose 300 mg L-1; pH 7.2; contact time 5 min
# Protocol: as §2
# [2] = Degradation in seawater in darkness (pH 6.2, 7.2, 8.2); details: seawater pH 8.2, darkness; 0 h
# Protocol: To study the DBP degradation in seawater in darkness, a DBP was added at 10 mg L^−1 to 50 mL pretreated seawater (pH 8.2) in the quartz flasks. The flasks were wrapped with aluminum foil to simulate the dark condition. The samples were kept at 20 °C in darkness for 0‒120 h, during which the sample was adjusted to pH 6.2 and 7.2 or maintained at pH 8.2 by adding 4 mM phosphate buffer (pH 6.2, 7.2, and 8.2, respectively).
# as §1
# P. dumerilii embryos = assay: Developmental toxicity assay with P. dumerilii embryos, dilution factor of in-use concentration (EC50,DF), also after degradation in darkness; assay type: in vivo, Platynereis dumerilii
# Description: The DBP doses for 3-log E. coli reduction (pH 7.2) were set as the in-use concentrations, which were serially diluted and added to the P. dumerilii embryos at 12-h postfertilization. A dilution factor was defined as the ratio of the in-use concentration to the exposure concentration. Each exposure set contained a control sample (i.e., the embryos at 12-h postfertilization developed in seawater without the addition of DBPs). By 24-h postfertilization, normally developed embryos should have reached the first larval stage. An inverted stereomicroscope (×40 magnification) was used to observe the larvae. The normal development percentage was calculated as the ratio of normally developed embryos to total embryos. By plotting the curve of the normal development percentage versus the dilution factor, the EC50,DF value (i.e., the dilution factor corresponding to 50% of the normal development percentage of the control sample) was obtained using SigmaPlot 12. The developmental toxicity test was conducted in duplicate.
# [3] = tested on: bacteriophage MS2 (ATCC 15597-B1); assay: Inactivation of bacteriophage MS2 (double-layer agar, contact time 5 min); assay type: cell-based; details: Escherichia phage MS2, ATCC15597, 5 min, pH 7.2, read-out: Log (N/N0), MS2; dose 300 mg L-1; pH 7.2; contact time 5 min
# Protocol: The bacteriophage MS2 (ATCC 15597-B1) was propagated in the host E. coli (ATCC 15597) in Tryptone Soya broth at 37 °C for 16 h. The viruses were separated from the bacterial debris and purified by centrifuging the phage culture (4000×g, 10 min, 4 °C) and filtering the lysate with a 0.2 μm polyethersulfone sterile filter. The filtrate was then diluted in PBS (10 mM, pH 7.2) to an initial MS2 concentration of 10^9‒10^10 plaque-forming units […]. To initiate the disinfection experiments, a series of DBP doses were added to the MS2 suspension at room temperature (22 ± 1 °C). […] Briefly, serial 10-fold dilutions were conducted for the disinfected samples and the control sample without disinfection. Each dilution was mixed with the host E. coli in the soft agar and the mixture was immediately spread onto a Petri dish with Tryptone Soya agar. After the Petri dishes were incubated at 37 °C for 16 h, the plaque-forming units were counted. The disinfection experiments were performed in duplicate. All the materials for the disinfection experiments were autoclaved before use.
# S. aureus (ATCC 25923) = assay: Inactivation of S. aureus (contact time 5 min); assay type: cell-based, Staphylococcus aureus; details: Staphylococcus aureus, ATCC25923, 5 min, pH 7.2, read-out: Log (N/N0), S. aureus; dose 300 mg L-1; pH 7.2; contact time 5 min
# Protocol: as §2
smiles,measurement,setting,value
"Oc1ccc(Br)cc1Br [2,4-DBPh, 2,4-dibromophenol]",half-life at 10 mg L−1,"[1]; buffer, pH 8.2",35 h
same,Ln (C/C0),"[1]; seawater pH 8.2, solar irradiation, 0 h",0
same,log reduction at 350 µg/mL,"E. coli (ATCC 25922); Escherichia coli, ATCC25922, 5 min, pH 6.2, read-out: Log (N/N0), E. coli, pH 6.2",3.35
same,EC (3-log inactivation),"E. coli (ATCC 25922); Escherichia coli, ATCC25922, 5 min, pH 7.2, read-out: Dose for achieving 3-log inactivation of E. coli",341 µg/mL
same,log reduction at 350 µg/mL,"E. coli (ATCC 25922); Escherichia coli, ATCC25922, 5 min, pH 7.2, read-out: Log (N/N0), E. coli, pH 7.2",3.26
same,log reduction at 350 µg/mL,"E. coli (ATCC 25922); Escherichia coli, ATCC25922, 5 min, pH 8.2, read-out: Log (N/N0), E. coli, pH 8.2",3.57
same,E. coli inactivation rate constant k,"E. coli (ATCC 25922); pH 7.2, contact time 5 min",0.28 L mg‒1 h‒1
same,log reduction at 300 µg/mL,C. albicans (ATCC 14053),1.67
same,Ln (C/C0),[2],0
same,Normal development (%),P. dumerilii embryos; dilution factor 11.1486,0%
same,Normal development (%),P. dumerilii embryos; dilution factor 13.3783,15.2624% and 20.2196%
same,Normal development (%),P. dumerilii embryos; dilution factor 16.7229,45.6306% and 47.4814%
same,Normal development (%),P. dumerilii embryos; dilution factor 22.2972,71.5034% and 77.6566%
same,Normal development (%),P. dumerilii embryos; dilution factor 33.4458,83.2326% and 85.1374%
same,Normal development (%),P. dumerilii embryos; dilution factor 66.8916,89.9171% and 84.7809%
same,Normal development (%),P. dumerilii embryos; dilution factor 133.783,89.4695% and 80.5305%
same,log reduction at 300 µg/mL,[3],0.966
same,log reduction at 300 µg/mL,S. aureus (ATCC 25923),0.669
